# Columns and labels:
# HSCs = conditions: published data, Goessling et al., Cell Stem Cell 2011; cited from earlier work
# CD34+ cells = assay: Time-course and dose-response of dmPGE2 in promoting viral transduction (GFP+ lentivirus, flow cytometry); type: cell-based, human; conditions: for percentage of cells positive for GFP: MOI 25
# Protocol: MCD-34+ cells were thawed and pre-stimulated with SCF, TPO, FltL and IL3, then transduced with GFP+ lentivirus at a multiplicity of infection of 25. Cells were exposed to dmPGE2 during the viral transduction step (24-25 hours of culture; 24-26 hours of culture; 24-28 hours of culture; or 24-48 hours of culture) and then washed and analyzed by flow cytometry after approximately 1 week in culture. Alternatively, cells were exposed to dmPGE2 during the pre-stimulation step (22-24 hours of culture; 23-24 hours of culture).
structure (smiles),measurement,setting,value
"CCCCC(C)(C)[C@H](O)/C=C/[C@H]1[C@H](O)CC(=O)[C@@H]1C/C=C\CCCC(=O)O [dmPGE2, 16,16-dimethyl PGE2]",promotion of viral transduction of HSCs,HSCs,unable to promote viral transduction of HSCs
same,percentage of cells positive for GFP,"CD34+ cells; dmPGE2 1 uM, Pre-Stim w/PGE2 Minus 2 Hr (22-24 hours of culture)",25.74%
same,percentage of cells positive for GFP,"CD34+ cells; dmPGE2 1 uM, Virus and PGE2 24 Hr (24-48 hours of culture)",32.03%
same,percentage of cells positive for GFP,"CD34+ cells; dmPGE2 1 uM, Virus and PGE2 Plus 1 Hr (24-25 hours of culture)",2.94%
same,percentage of cells positive for GFP,"CD34+ cells; dmPGE2 1 uM, Virus and PGE2 Plus 2 Hr (24-26 hours of culture)",7.17%
same,percentage of cells positive for GFP,"CD34+ cells; dmPGE2 1 uM, Virus and PGE2 Plus 4 Hr (24-28 hours of culture)",21.10%
same,percentage of cells positive for GFP,"CD34+ cells; dmPGE2 12.5 uM, Pre-Stim w/PGE2 Minus 1 Hr (23-24 hours of culture)",22.13%
same,percentage of cells positive for GFP,"CD34+ cells; dmPGE2 12.5 uM, Pre-Stim w/PGE2 Minus 2 Hr (22-24 hours of culture)",30.64%
same,percentage of cells positive for GFP,"CD34+ cells; dmPGE2 12.5 uM, Virus and PGE2 24 Hr (24-48 hours of culture)",47.42%
same,percentage of cells positive for GFP,"CD34+ cells; dmPGE2 12.5 uM, Virus and PGE2 Plus 1 Hr (24-25 hours of culture)",1.97%
same,percentage of cells positive for GFP,"CD34+ cells; dmPGE2 12.5 uM, Virus and PGE2 Plus 2 Hr (24-26 hours of culture)",5.32%
same,percentage of cells positive for GFP,"CD34+ cells; dmPGE2 12.5 uM, Virus and PGE2 Plus 4 Hr (24-28 hours of culture)",28.08%
same,percentage of cells positive for GFP,"CD34+ cells; dmPGE2 25 uM, Pre-Stim w/PGE2 Minus 1 Hr (23-24 hours of culture)",24.05%
same,percentage of cells positive for GFP,"CD34+ cells; dmPGE2 25 uM, Pre-Stim w/PGE2 Minus 2 Hr (22-24 hours of culture)",31.90%
same,percentage of cells positive for GFP,"CD34+ cells; dmPGE2 25 uM, Virus and PGE2 24 Hr (24-48 hours of culture)",50.69%
same,percentage of cells positive for GFP,"CD34+ cells; dmPGE2 25 uM, Virus and PGE2 Plus 1 Hr (24-25 hours of culture)",1.76%
same,percentage of cells positive for GFP,"CD34+ cells; dmPGE2 25 uM, Virus and PGE2 Plus 2 Hr (24-26 hours of culture)",4.76%
same,percentage of cells positive for GFP,"CD34+ cells; dmPGE2 25 uM, Virus and PGE2 Plus 4 Hr (24-28 hours of culture)",27.46%
same,percentage of cells positive for GFP,"CD34+ cells; dmPGE2 50 uM, Pre-Stim w/PGE2 Minus 1 Hr (23-24 hours of culture)",22.98%
same,percentage of cells positive for GFP,"CD34+ cells; dmPGE2 50 uM, Pre-Stim w/PGE2 Minus 2 Hr (22-24 hours of culture)",31.85%
same,percentage of cells positive for GFP,"CD34+ cells; dmPGE2 50 uM, Virus and PGE2 24 Hr (24-48 hours of culture)",54.63%
same,percentage of cells positive for GFP,"CD34+ cells; dmPGE2 50 uM, Virus and PGE2 Plus 1 Hr (24-25 hours of culture)",1.85%
same,percentage of cells positive for GFP,"CD34+ cells; dmPGE2 50 uM, Virus and PGE2 Plus 2 Hr (24-26 hours of culture)",4.23%
same,percentage of cells positive for GFP,"CD34+ cells; dmPGE2 50 uM, Virus and PGE2 Plus 4 Hr (24-28 hours of culture)",27.45%
same,percentage of cells positive for GFP,"CD34+ cells; dmPGE2 100 uM, Pre-Stim w/PGE2 Minus 1 Hr (23-24 hours of culture)",25.14%
same,percentage of cells positive for GFP,"CD34+ cells; dmPGE2 100 uM, Pre-Stim w/PGE2 Minus 2 Hr (22-24 hours of culture)",34.85%
same,percentage of cells positive for GFP,"CD34+ cells; dmPGE2 100 uM, Virus and PGE2 24 Hr (24-48 hours of culture)",76.44%
same,percentage of cells positive for GFP,"CD34+ cells; dmPGE2 100 uM, Virus and PGE2 Plus 1 Hr (24-25 hours of culture)",2.48%
same,percentage of cells positive for GFP,"CD34+ cells; dmPGE2 100 uM, Virus and PGE2 Plus 2 Hr (24-26 hours of culture)",4.02%
same,percentage of cells positive for GFP,"CD34+ cells; dmPGE2 100 uM, Virus and PGE2 Plus 4 Hr (24-28 hours of culture)",21.57%
same,improvement of viral transduction,"CD34+ cells; time windows commonly used for promoting hematopoietic stem cell activity, on the order of one to two hours",unable to improve viral transduction
